ChEMBL document CHEMBL1121522, “Binding specificities of adenosine aminohydrolase from calf intestinal mucosa with dialdehydes derived from hexofuranosyladenine nucleosides” (J Med Chem, 1980)

Experiments:
Adenosine deaminase = target: T1, Adenosine deaminase (Bos taurus, UniProt P56658); assay: Inhibition constant against Adenosine deaminase was determined from calf intestinal mucosa
T1 sequence (P56658 whole entry): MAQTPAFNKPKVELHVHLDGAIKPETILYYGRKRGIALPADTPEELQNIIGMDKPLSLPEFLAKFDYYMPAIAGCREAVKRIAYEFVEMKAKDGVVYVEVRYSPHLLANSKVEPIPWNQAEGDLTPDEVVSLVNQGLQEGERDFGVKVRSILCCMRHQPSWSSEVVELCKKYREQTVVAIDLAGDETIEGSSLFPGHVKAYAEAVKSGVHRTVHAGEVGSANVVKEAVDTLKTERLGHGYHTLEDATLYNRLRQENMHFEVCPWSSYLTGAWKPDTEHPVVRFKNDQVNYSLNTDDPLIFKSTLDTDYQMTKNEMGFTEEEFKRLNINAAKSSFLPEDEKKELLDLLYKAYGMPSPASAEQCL

Bos taurus = organism: Bos taurus; assay: Kinetic constant (Vmax) against Adenosine Aminohydrolase was determined from calf intestinal mucosa; assay type: ADME; details: cattle, in vitro
[1] = test system: adenosine aminohydrolase (adenosine deaminase); assay: Kinetic Constant (Km) against Adenosine Aminohydrolase was determined from calf intestinal mucosa; assay type: ADME, Bos taurus; details: cattle

Ki (Adenosine deaminase) [µM]	Vmax (Bos taurus) [µmol/min/mg]	Km [1] [µM]	Structure (SMILES)
370	0.41	140	CC(O)[C@H](C=O)O[C@@H](C=O)n1cnc2c(N)ncnc21 (stereo partly drawn)
50			C=C[C@@H](C=O)O[C@@H](C=O)n1cnc2c(N)ncnc21
7			C=C[C@H](C=O)O[C@H](C=O)n1cnc2c(N)ncnc21
430	0.46	350	CC(O)[C@@H](C=O)O[C@@H](C=O)n1cnc2c(N)ncnc21 (stereo partly drawn)
